Structures are written as SMILES. Several values for one entry are separate records, joined by “and”; a condition that tells them apart may be missing. Identical values can stand only once. Toxic doses and inconclusive results are not listed.

The test concerns L1210 leukemia ip in BDF1 mice, survival T/C. In words: NCI In Vivo Anticancer Drug Screen. Data for tumor model L1210 Leukemia (intraperitoneal) in B6D2F1 (BDF1) mice. The conditions noted are these: endpoint: mean survival time, higher = longer survival. A digest of the protocol: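 Transplantable tumor model; survival measured in treated vs vehicle control mice. Value = treated/control.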

[1] abbreviates: dose: 100.0 mg/kg/injection, schedule: Q04DX003 (ip), vehicle: Klucel (hydroxypropylcellulose) (HPC).
Setting [2] is: dose: 100.0 mg/kg/injection, schedule: Q01DX009 (ip), vehicle: Klucel (hydroxypropylcellulose) (HPC).
[3] abbreviates: dose: 200.0 mg/kg/injection, schedule: Q01DX009 (ip), vehicle: Klucel (hydroxypropylcellulose) (HPC).
Setting [4] is: dose: 200.0 mg/kg/injection, schedule: Q04DX003 (ip), vehicle: Klucel (hydroxypropylcellulose) (HPC).
The mark [5] stands for this setting: dose: 400.0 mg/kg/injection, schedule: Q01DX009 (ip), vehicle: Klucel (hydroxypropylcellulose) (HPC).
Where [6] appears, read: dose: 400.0 mg/kg/injection, schedule: Q04DX003 (ip), vehicle: Klucel (hydroxypropylcellulose) (HPC).
Setting [7] is: dose: 100.0 mg/kg/injection, schedule: Q04DX003 (ip), vehicle: saline with Tween-80.
[8] abbreviates: dose: 200.0 mg/kg/injection, schedule: Q04DX003 (ip), vehicle: saline with Tween-80.
[9] abbreviates: dose: 400.0 mg/kg/injection, schedule: Q04DX003 (ip), vehicle: saline with Tween-80.
Setting [10] is: dose: 75.0 mg/kg/injection, schedule: Q01DX001 (ip), vehicle: saline.

In the case of `O=S(=O)(O)CCl`, the T/C (dose: 100.0 mg/kg/injection, schedule: Q04DX002 (ip), vehicle: saline) is 106 % of control; the T/C (dose: 200.0 mg/kg/injection, schedule: Q04DX002 (ip), vehicle: saline) was 120 % of control; the T/C (dose: 400.0 mg/kg/injection, schedule: Q04DX002 (ip), vehicle: saline) is 102 % of control.

With `O=C(CCl)Nc1ccc([As](=O)(O)O)cc1`, the T/C (dose: 25.0 mg/kg/injection, schedule: Q01DX009 (ip), vehicle: Klucel (hydroxypropylcellulose) (HPC)) was 98 % of control; the T/C (dose: 50.0 mg/kg/injection, schedule: Q01DX009 (ip), vehicle: Klucel (hydroxypropylcellulose) (HPC)) was 91 % of control; the T/C (dose: 50.0 mg/kg/injection, schedule: Q04DX003 (ip), vehicle: Klucel (hydroxypropylcellulose) (HPC)) was 94 % of control; the T/C under setting [1] is 97 % of control.

Consider `CCOC(=O)c1cc(C(=O)OCC)c(C#N)c(=O)[nH]1`, for which the T/C was 103 % of control under setting [2]; 100 % of control under setting [1]; 88 % of control under setting [3]; 88 % of control under setting [4]; 94 % of control under setting [5]; 98 % of control under setting [6].

With `CCP(=S)(CC)CCCCCP(=S)(CC)CC`, the T/C under setting [7] was 92 % of control, the T/C under setting [8] is 95 % of control and the T/C under setting [9] was 87 % of control.

On to `Cc1ccc(S(=O)(=O)N(N)C(=O)c2ccccc2)cc1`, for which the T/C under setting [10] was 86 % of control.

For the compound `CNO`, the T/C under setting [2] was 100 % of control; the T/C under setting [1] was 95 % of control; the T/C under setting [3] was 97 % of control; the T/C under setting [4] is 95 % of control; the T/C under setting [6] was 109 % of control.

Turning to `C=CCN1C(=O)c2ccccc2C1=O`, the T/C reads like this: under setting [2], 100 % of control; under setting [1], 95 % of control; under setting [3], 100 % of control; under setting [4], 95 % of control; under setting [5], 91 % of control; under setting [6], 92 % of control.

As to `COc1cc(SSc2ccc(N)c(OC)c2)ccc1N`, the T/C is 105 % of control (dose: 75.0 mg/kg/injection, schedule: Q01DX001 (ip), vehicle: carboxymethylcellulose (CMC)) and 88 % of control (dose: 150.0 mg/kg/injection, schedule: Q01DX001 (ip), vehicle: carboxymethylcellulose (CMC)).

Turning to `CN=C(N)c1ccc(NC(=O)c2ccc(C(=O)Nc3ccc(C(N)=NC)cc3)c(N)c2)cc1`, the T/C runs as follows: (dose: 0.37 mg/kg/injection, schedule: Q01DX Z (ip), vehicle: water) 104 % of control; (dose: 0.75 mg/kg/injection, schedule: Q01DX Z (ip), vehicle: water) 121 % of control; (dose: 1.5 mg/kg/injection, schedule: Q01DX Z (ip), vehicle: water) 123 % of control; (dose: 1.75 mg/kg/injection, schedule: Q01DX Z (ip), vehicle: water) 154 % of control; (dose: 2.0 mg/kg/injection, schedule: Q01DX Z (ip), vehicle: carboxymethylcellulose (CMC)) 189 % of control; (dose: 4.0 mg/kg/injection, schedule: Q01DX Z (ip), vehicle: carboxymethylcellulose (CMC)) 218 % of control. Moreover, the T/C is 184 % of control (dose: 6.0 mg/kg/injection, schedule: Q01DX Z (ip), vehicle: carboxymethylcellulose (CMC)); 110 % of control (dose: 6.7 mg/kg/injection, schedule: Q01DX001 (sc), vehicle: water); 170 % of control (dose: 8.0 mg/kg/injection, schedule: Q01DX Z (ip), vehicle: carboxymethylcellulose (CMC)); 107 % of control (dose: 10.0 mg/kg/injection, schedule: Q01DX001 (sc), vehicle: water); 107 % of control (dose: 10.0 mg/kg/injection, schedule: Q01DX Z (ip), vehicle: carboxymethylcellulose (CMC)); 96 % of control (dose: 12.0 mg/kg/injection, schedule: Q01DX Z (ip), vehicle: carboxymethylcellulose (CMC)). Besides, the T/C was 88 % of control (dose: 14.0 mg/kg/injection, schedule: Q01DX Z (ip), vehicle: carboxymethylcellulose (CMC)); 119 % of control (dose: 15.0 mg/kg/injection, schedule: Q01DX001 (sc), vehicle: water); 110 % of control (dose: 25.0 mg/kg/injection, schedule: Q01DX Z (oral), vehicle: water); 100 % of control (dose: 50.0 mg/kg/injection, schedule: Q01DX Z (oral), vehicle: water); 97 % of control (dose: 100.0 mg/kg/injection, schedule: Q01DX Z (oral), vehicle: water); 110 % of control (dose: 200.0 mg/kg/injection, schedule: Q01DX Z (oral), vehicle: water).

`CC1=NCCN=C(C)CC(C)(C)[N-]CC[N-]C(C)(C)C1.[Cl-].[Cl-].[Co+3].[O-][Cl+3]([O-])([O-])O`: the T/C (dose: 150.0 mg/kg/injection, schedule: Q04DX002 (ip), vehicle: Klucel (hydroxypropylcellulose) (HPC)) was 97 % of control and the T/C (dose: 300.0 mg/kg/injection, schedule: Q04DX002 (ip), vehicle: Klucel (hydroxypropylcellulose) (HPC)) was 94 % of control.

Take `Cn1cnc([N+](=O)[O-])c1Sc1ncnc2c1ncn2C1OC(CO)C(O)C1O` (stereo unspecified): the T/C is, setting by setting: (dose: 18.0 mg/kg/injection, schedule: Q01DX009 (ip), vehicle: saline) 100 % of control; (dose: 35.0 mg/kg/injection, schedule: Q01DX009 (ip), vehicle: saline) 108 % of control; (dose: 75.0 mg/kg/injection, schedule: Q04DX003 (ip), vehicle: Klucel (hydroxypropylcellulose) (HPC)) 121 % of control; (dose: 110.0 mg/kg/injection, schedule: Q01DX009 (ip), vehicle: saline) 152 % of control; (dose: 165.0 mg/kg/injection, schedule: Q01DX009 (ip), vehicle: saline) 150 % of control; (dose: 176.0 mg/kg/injection, schedule: Q01DX009 (ip), vehicle: other) 164 % of control. Also, the T/C (dose: 250.0 mg/kg/injection, schedule: Q01DX009 (ip), vehicle: saline) was 154 % of control and the T/C (dose: 300.0 mg/kg/injection, schedule: Q04DX003 (ip), vehicle: Klucel (hydroxypropylcellulose) (HPC)) is 156 % of control.

Regarding `Nc1ccc(/C=C\C(=O)NCc2cccnc2)cc1`, the T/C is 109 % of control (dose: 25.0 mg/kg/injection, schedule: Q01DX009 (ip), vehicle: saline with Tween-80); 102 % of control (dose: 50.0 mg/kg/injection, schedule: Q01DX009 (ip), vehicle: saline with Tween-80); 93 % of control and 90 % of control (dose: 100.0 mg/kg/injection, schedule: Q01DX009 (ip), vehicle: saline with Tween-80).

For the compound `Nc1c(O)c(Cl)cc(Cl)c1Cl`, the T/C was 110 % of control (dose: 100.0 mg/kg/injection, schedule: Q04DX002 (ip), vehicle: other) and 107 % of control (dose: 200.0 mg/kg/injection, schedule: Q04DX002 (ip), vehicle: other).

`BrC1=C(Br)C(Br)(Br)C(Br)=C1Br`: the T/C by setting is: (dose: 10.0 mg/kg/injection, schedule: Q01DX001 (ip), vehicle: saline) 101 % of control; (dose: 20.0 mg/kg/injection, schedule: Q01DX001 (ip), vehicle: saline) 98 % of control.

On to `CC(Br)C(=O)NC(Cc1ccccc1)C(=O)O` (stereo unspecified), for which the T/C (dose: 100.0 mg/kg/injection, schedule: Q01DX009 (ip), vehicle: alcohol) is 93 % of control; the T/C (dose: 100.0 mg/kg/injection, schedule: Q04DX003 (ip), vehicle: other) was 104 % of control; the T/C under setting [7] is 94 % of control; the T/C (dose: 200.0 mg/kg/injection, schedule: Q01DX009 (ip), vehicle: alcohol) is 100 % of control; the T/C (dose: 200.0 mg/kg/injection, schedule: Q04DX003 (ip), vehicle: other) was 104 % of control and 88 % of control; the T/C under setting [8] is 96 % of control. The T/C reads like this: (dose: 400.0 mg/kg/injection, schedule: Q01DX009 (ip), vehicle: alcohol) 90 % of control; (dose: 400.0 mg/kg/injection, schedule: Q04DX003 (ip), vehicle: other) 92 % of control and 88 % of control; under setting [9], 91 % of control.

Consider `CCC(=O)N(c1ccccc1)C1/C(=C\c2ccccc2)N2CCC1CC2` (stereo unspecified), for which the T/C runs as follows: under setting [1], 97 % of control; under setting [4], 95 % of control; under setting [6], 95 % of control.

For the compound `Brc1ccccn1`, the T/C under setting [10] is 105 % of control.

Turning to `C[PH+](c1ccccc1)c1ccccc1.C[PH+](c1ccccc1)c1ccccc1.O=C([S-])[S-].[Pd+2]`, the T/C (dose: 50.0 mg/kg/injection, schedule: Q04DX003 (ip), vehicle: saline) was 100 % of control; the T/C (dose: 100.0 mg/kg/injection, schedule: Q04DX003 (ip), vehicle: saline) was 100 % of control; the T/C (dose: 200.0 mg/kg/injection, schedule: Q04DX003 (ip), vehicle: saline) was 94 % of control.
